In PMC11172314, “Towards Enhanced Tunability of Aqueous Biphasic Systems: Furthering the Grasp of Fluorinated Ionic Liquids in the Purification of Proteins” (International Journal of Molecular Sciences, 2024):

Assays:
Parameters in all cases: species or system chicken
[1] = molecular target: T1, lysozyme (Lys) (Gallus gallus, UniProt P00698); test: Intrinsic (tryptophan) fluorescence of lysozyme; conditions: 0.2 mg/mL Lys, excitation 295 nm, component 0.1–800 mM, 25 °C
T1 construct: Lyophilized lysozyme from chicken egg white, ≥90% purity; purchased Millipore (Darmstadt, Germany); host or cells: chicken egg white (natural source)
T1 sequence (P00698 19-147): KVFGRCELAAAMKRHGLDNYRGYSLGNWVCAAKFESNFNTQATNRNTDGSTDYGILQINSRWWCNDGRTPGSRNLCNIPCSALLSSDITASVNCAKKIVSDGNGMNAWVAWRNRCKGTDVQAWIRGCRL
Source text: (FIL), [C4C1Im][CF3SO3] (mere fluoro-containing IL), and [ N1112(OH) ][H2PO4] (globular protein stabilizer). […] Even though large changes in protein conformation can modify the intensity of tyrosine and phenylalanine fluorescence signals, their low extinction coefficients and quantum yields, as well as their relative lower sensitivity to environmental changes, make them a less appealing candidate. Tryptophan is frequently found concealed in the hydrophobic core of proteins due to its aromatic nature. […] The tryptophan release energy is particularly sensitive to the polarity (and dynamics) of the environment because the excited-state dipole moment is quite large. Reactions to denaturation, substrate binding, subunit association, and conformational transitions create variations in the tryptophan emission spectra. The spectrum shift generally known as blue shift, a shift of the maximum emission towards smaller wavelengths, denotes that the aromatic residue is buried in the native structure of the protein [67]. […] Furthermore, the amount of exposure of the fluorophores to the solvent is associated with the increase or decrease in the intensity of the emission spectrum. […] [C4C1Im][CF3SO3] and [ N1112(OH) ][H2PO4] […] Variations in lysozyme spectra are caused by ligand-induced changes in the microenvironment of tryptophan residues, either by shifting the maximum peak wavelength (blue or red shift) or by altering peak intensities. These changes can be used as a measure of the effect of the ABS phase-forming components on protein folding and unfolding.
Intrinsic fluorescence spectroscopy measurements of lysozyme’s tryptophan residues were carried out on a Spex Horiba Jobyin Yvon spectrofluorometer (HORIBA Jobin Yvon, France) using a 10 mm path length quartz cuvette. […] The excitation and emission slit widths of 2 nm were used for all the measurements. Maximum fluorescence values were attained as the average of three measurements.

[2] = molecular target: T1, lysozyme (Lys); test: Turbidimetry (transmittance) of lysozyme solutions; conditions: 0.2 mg/mL Lys, IL 0.1–120 mM, 25 °C
Source text: Monitoring the changes in turbidity offers an insight into the protein–ionic liquid aqueous solution interactions, which allows for the assessment of the ionic liquid functionalization of the fluorinated IL vs. the mere fluoro-contaning IL ([C2C1Im][C4F9SO3] vs. [C4C1Im][CF3SO3]). […] In opposition, [C2C1Im][C4F9SO3] […] The results of Rather et al. also confirmed the significant composition and concentration dependence of the lysozyme–surfactant IL interactions, mainly in the CAC concentration regime. Additionally, an increase in turbidity is observed for both [C4C1Im][CF3SO3] and [C2C1Im][C4F9SO3] at concentrations below the first CAC of the FIL (only monomers exist in solution for both ionic liquids) in comparison with lysozyme in water (snapshots in Figure 7A,B). […]
Both turbidimetry and UV-Vis absorbance assays were carried out at 25 °C on a double-beam UV6300PL UV-Vis spectrophotometer (VWR, Leuven, Belgium) with a pair of 10 mm path length quartz cuvettes of 400 µL sample volume. […] For absorbance measurements, all spectra were acquired with 190 to 400 nm wavelength range. […] Aqueous solutions of [C4C1Im][CF3SO3] and [C2C1Im][C4F9SO3] were analyzed with concentrations varying from 0.1 to 120 mM.

[3] = molecular target: T1, lysozyme (Lys); test: DSC thermal stability (Tm, ΔH) of lysozyme in water, component solutions and ABS phases; conditions: 1.0 mg/mL Lys
Source text: Differential scanning calorimetry (DSC) measurements (Section 3) were used to determine the melting temperature ( Tm ) and enthalpy ( Δ H) of lysozyme, at which both the folded and unfolded states coexist at equilibrium. DSC outputs, thermal transitions at the nanoscale level, allow to analyze alterations on proteins structure and stability, providing sharp perceptions of the factors affecting stability, as well as of the folding and unfolding processes. […] (DSC curve depicted in Figure S16 of Supplementary Materials).
FIL (BP#8, BP#10, BP#11, and BP#12). […] For the system based on [C4C1Im][CF3SO3]
The thermal stability of lysozyme was analyzed in water, ABS phase-forming compounds aqueous solutions, and partition ABS phases. […] Partition lysozyme on each phase from the prepared biphasic points as well as recovered protein from the FIL-rich phase were also addressed for a selection of studied systems listed in Table 1. We acquired thermograms using a TA^TM Nano DSC from TA Instruments. All scans were conducted in a 300 μ L capillary cell through a temperature ramp from 20 to 90 °C at a heating rate of 1 °C/min and 3 atm pressure. All samples were degassed for 7 min at 20 °C, with the exception of FIL-containing samples owing to their surfactant properties. After subtracting the polynomial fit baselines, raw thermogram curve data were fitted with the TwoStateScaled model using NanoAnalyze TA Instruments software, version 3.12, to determine the protein thermal transition temperatures in each sample. During nanoDSC scans, Δ H and Δ S were obtained and utilized to determine Δ G ( Δ G = Δ H − T Δ S).

Lys maximum emission wavelength with increasing component concentration [1]: red shift from 334 nm to 368 nm
Turbidity (transmittance) of Lys solution with increasing IL concentration [2]: steady turbidity profile
Lys Tm ([3]; 0.1 mM component in water): 74.50 °C
Lys ∆H ([3]; 0.1 mM component in water): 441.3 kJ/mol
Lys Tm ([3]; 1 mM component in water): 75.54 °C
Lys ∆H ([3]; 1 mM component in water): 438.1 kJ/mol
Lys Tm ([3]; 5 mM component in water): 74.64 °C
Lys ∆H ([3]; 5 mM component in water): 404.6 kJ/mol
Lys Tm ([3]; 10 mM component in water): 74.16 °C
Lys ∆H ([3]; 10 mM component in water): 395.6 kJ/mol
SMILES: CCCCn1cc[n+](C)c1.O=S(=O)([O-])C(F)(F)F [[C4C1Im][CF3SO3]]
Lys fluorescence emission intensity with increasing component concentration [1]: increase in Lys fluorescence emission intensity
